Test results taken from patent publication US6262108A, “Medicinal use of cromoglycic acid compounds” (Kyoto Pharmaceutical Industries, Ltd., priority 1997, dated 2001).
Entries after “also recorded” stand apart in the source; their conditions may differ.

Legend:
[1] = tested on: bone of feet and digits of the four limbs; assay: X-ray score of bone destruction in collagen-induced arthritis mice; assay type: in vivo, male DBA/1J mice; details: 100 mg/kg/day orally
Description: According to the method of Courtenay et al. (Courtenay, J. S. et al.: Immunization against heterologous type II collagen induces arthritis in mice. Nature, 283:666, 1980), male DBA/1J mice (CHARLES RIVER JAPAN INC.) were sensitized with bovine type II collagen to induce collagen-induced arthritis (rheumatoid arthritis). After the onset of arthritis, diethyl acetoacetylcromoglycate was orally administered and its inhibitory effect was examined. The method is detailed in the following.
Male DBA/1J mice (8-week-old) were pre-bred for one week and divided into the following 3 groups based on body weight (8-10 per group). […]
In addition, the whole body w as X-ray photographed and destruction state of the bone of feet and digits of the four limbs was scored (X-ray score) by a blind test according to the criteria of Gliman et al. (Gliman S. C. et al.: Immunological abnormalities in rats with adjuvant-induced ar thritis, II. Effect of antiarthritic therapy on immune function in relation to disease development, Int. J. Immunopharmacol. , 9:9-16, 1987), wherein normal was rated 0 point, destruction in one joint was 1 point, destruction in two or more joints, though not all joints, was 2 points, and destruction in all joints was 3 points, each mouse scoring 0 to 12 points in total.

Acute Toxicity Test = details: mouse, in vivo; oral, suspension, male ICR mice
Description: The cromoglycic acid compound prepared in the above Example 1 was orally administered to male ICR mice (3 per group) in the form of a suspension.

With `CCOC(=O)c1cc(=O)c2c(OCC(COc3cccc4oc(C(=O)OCC)cc(=O)c34)OC(=O)CC(C)=O)cccc2o1` [Example 1, Diethyl Acetoacetylcromoglycate] the “effect on X-ray score / bone destruction (in words)” value ([1]; day 42 after starting treatment, U-test with control group) was “signifiicant improvement in X-ray so re; also recorded: inhibition of bone destruction of feet and digits of the four limbs”, the X-ray score ([1]; day 83 after initial injection of collagen (day 42 after starting treatment), mean ± standard error (n = 8-10), control 10.20 ± 0.40, p < 0.01) was 5.80 ± 1.10 and the LD50 (Acute Toxicity Test) was over 1000 mg/kg.
